Assay results: patent US5399568A, “Methanoanthrancenyl piperidyl antipsychotics” (Imperial Chemical Industries plc, priority 1991, dated 1995)

Experiments:
[1] = test system: apomorphine-induced climbing and apomorphine-induced disruption of swimming; assay: Test B: antagonism of apomorphine-induced climbing and apomorphine-induced disruption of swimming; assay type: in vivo; settings: Mus musculus; oral, female Swiss-Webster mice, 30 min before apomorphine HCl 1.25 mg/kg sc; typical values; read-out: minimum effective dose (decrease in climbing score accompanied by increase in swimming score)
Method: (§1) The compounds of Formula I are antagonists of dopamine D-2 receptors, and as such are predicted to be useful as antipsychotic drugs. D-2 antagonism can be shown by standard tests such as antagonism of [^3 H]-spiperone binding (Test A), and/or antagonism of apomorphine-induced climbing and apomorphine- induced disruption of swimming (Test B).
Female Swiss-Webster mice weighing approximately 20 g were deprived of food for approximately 24 h and then dosed orally with various doses of either the vehicle or test agent over a range of doses (N=20 mice per treatment group). Thirty minutes later they were dosed with apomorphine HCl at 1.25 mg/kg, sc, and placed into climbing cages. The climbing cages were 9 cm wide, 15 cm deep and 30 cm high. One wall had 27 horizontal rungs spaced 1 cm apart. Thirteen minutes after apomorphine each mouse was observed continuously for 1 min and the highest and lowest rung reached by its front paws was recorded. The mean of these two scores was used as the score for that mouse. (The highest and lowest scores were 27 and 0, respectively.) Immediately after the 1-min climbing observation period each mouse was placed into a circular swimming tank for 2 min and the number of swims was counted. The height of the tank was 15 cm and the diameter was 28 cm. A circular obstacle measuring 10.5 cm in diameter and having a height of 17 cm was placed into the center of the tank, creating a circular swimming channel 8.75 cm wide. The water level was 5.5 cm and the water was kept at room temperature. Marks were placed on the floor and side of the tank 180 degrees apart. A "swim" was scored each time a mouse swam from one mark to the other. The mice were observed through overhead mirrors and the number of 180 degree swims was recorded for each mouse. Activity in this test was indicated by a decrease in the climbing score accompanied by an increase in the swimming score at a given dose of the test compound. Typical values of minimum effective doses in this test were 10 mg/kg for the compound of Example 6 and 20 mg/kg for each of the compounds of Examples 15 and 21.

[2] = molecular target: T1, dopamine (DA) D-2 receptor (Rattus norvegicus, UniProt P61169); assay: Test A: antagonism of [^3 H]-spiperone binding (D-2 receptor binding assay, rat striatal membranes); settings: 0.5 nM [^3 H] spiperone, 40 nM ketanserin, pH 7.7, 37° C., 15 min, typical values, read-out: IC50 (drug concentration which produced a 50% displacement of [^3 H] spiperone)
T1 construct: rat striatal membranes were used; from tissue; host or cells: rat striatum (membranes)
T1 sequence (P61169 whole entry): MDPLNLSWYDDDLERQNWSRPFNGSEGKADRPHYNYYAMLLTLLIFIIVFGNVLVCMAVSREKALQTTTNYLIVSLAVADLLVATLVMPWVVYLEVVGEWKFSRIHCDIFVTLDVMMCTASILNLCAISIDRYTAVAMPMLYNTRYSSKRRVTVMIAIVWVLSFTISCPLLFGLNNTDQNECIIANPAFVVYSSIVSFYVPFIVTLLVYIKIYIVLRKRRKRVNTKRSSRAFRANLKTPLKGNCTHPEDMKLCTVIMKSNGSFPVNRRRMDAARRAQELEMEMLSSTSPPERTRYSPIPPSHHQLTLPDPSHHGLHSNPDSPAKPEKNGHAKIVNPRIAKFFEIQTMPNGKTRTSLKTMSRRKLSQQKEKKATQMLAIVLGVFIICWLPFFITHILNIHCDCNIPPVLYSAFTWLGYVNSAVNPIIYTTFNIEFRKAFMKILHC
Excerpt: as §1
The receptor binding assay used to measure affinities of various compounds for the dopamine (DA) D-2 receptor subtype was that described by Saller and Salama in J Pharmacol Exp Ther 236, page 714, 1986.
Specifically, rat striatal membranes were used. Tissue membranes were prepared and washed once in 50 volumes of the appropriate Tris HCl buffer. For the D-2 receptor binding assay, striatal membranes were suspended to a final concentration of 8 mg/ml in 50 mM Tris HCl with 40 nM ketanserin, pH 7.7. Nonspecific binding to D-2 receptors was measured in the presence of 1.0 μM (+)-butaclamol. IC50 s (drug concentration which produced a 50% displacement) for the displacement of 0.5 nM [^3 H] spiperone were determined using at least five concentrations of each drug in triplicate. One-half milliliter of membrane suspension was incubated with the compound of interest or vehicle or nonspecific drug, ligand and appropriate Tris HCl buffer. The final reaction volume totaled 1 ml for each tube and was incubated at 37° C. for 15 min to facilitate binding and ensure equilibrium had been met. A Brandel filtering system equipped with GF/B filters was used to separate bound from free drug. The amount of drug bound to the membranes was assessed using liquid scintillation counting techniques. IC50 values were obtained from a least squares regression of a logit-log transformation of the data. Typical values in this test were, for example, 103 nM (nanomolar) for the compound of Example 6, 84 nM for the compound of Example 15, and 15 nM for the compound of Example 21.

IC50 [2] [nM]	SMILES	minimal effective dose [1] [mg/kg]
84	COc1cccc(C(O)C2CCN(CC34CC(c5ccccc53)c3ccc(Cl)cc34)CC2)c1 (racemic) [Example 15, (R,S)-1-[1-((9RS,10RS)-2-Chloro-9,10-dihydro-9,10-methanoanthracen-9-ylmethyl)-4-piperidyl]-1-(3-methoxyphenyl)methanol]	20
15	COc1ccc(C(O)C2CCN(CC34CC(c5ccccc53)c3ccc(Cl)cc34)CC2)cc1 (racemic) [Example 21, (R,S)-1-[1-((9RS, 10RS)-2-Chloro-9,10-dihydro-9,10-methanoanthracen-9-ylmethyl)-4-piperidyl]-1-(4-methoxyphenyl)methanol]	20
103	OC(c1cccnc1)C1CCN(CC23CC(c4ccccc42)c2ccccc23)CC1 (stereo not drawn) [Example 6, 1-[1-(9,10-Dihydro-9,10-methanoanthracen-9-ylmethyl)-4-piperidyl]-1-(3-pyridyl)methanol]	10
